Earlier results in patent US5688524A, “Transdermal formulations for administering prazosin” (Cygnus, Inc., priority 1993, dated 1997).

Columns and labels:
[1] = system: benign prostatic hypertrophy (BPH); conditions: in vivo
[2] = oral; incomplete absorption, GI degradation, first pass liver metabolism

bioavailability [2]: incomplete bioavailability
SMILES: COc1cc2nc(N3CCN(C(=O)c4ccco4)CC3)nc(N)c2cc1OC [prazosin]
effect in treating benign prostatic hypertrophy (BPH) [1]: effective in treating benign prostatic hypertrophy (BPH)
